Experimental data as given in patent US20130196986A1 (priority 2010, published 2013).

Target: T1, P2X7 receptor (Homo sapiens, UniProt Q99572)
T1 construct: stably expressing the full length P2X7 receptor; expressed in transfected cells
T1 sequence (Q99572 1-595): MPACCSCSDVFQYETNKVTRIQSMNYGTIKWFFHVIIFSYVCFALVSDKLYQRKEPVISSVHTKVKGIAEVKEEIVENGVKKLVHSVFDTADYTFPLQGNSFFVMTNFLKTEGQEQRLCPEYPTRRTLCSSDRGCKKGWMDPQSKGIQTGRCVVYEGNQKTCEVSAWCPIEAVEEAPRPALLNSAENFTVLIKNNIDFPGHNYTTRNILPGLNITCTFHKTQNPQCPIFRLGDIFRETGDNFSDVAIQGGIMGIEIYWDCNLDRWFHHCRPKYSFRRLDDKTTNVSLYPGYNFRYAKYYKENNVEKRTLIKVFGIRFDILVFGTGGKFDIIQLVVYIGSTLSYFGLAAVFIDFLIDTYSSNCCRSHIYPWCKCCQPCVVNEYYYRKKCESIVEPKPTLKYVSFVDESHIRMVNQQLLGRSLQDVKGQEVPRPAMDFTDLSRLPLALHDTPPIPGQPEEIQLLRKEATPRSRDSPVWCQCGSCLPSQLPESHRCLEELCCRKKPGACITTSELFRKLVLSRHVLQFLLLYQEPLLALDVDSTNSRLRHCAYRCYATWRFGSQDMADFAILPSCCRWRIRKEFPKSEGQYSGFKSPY
Experiment: Ca++ flux assay (FLIPR) in P2X7-HEK-293 cell line stably expressing the full length P2X7 receptor, Bz-ATP activation
Assay type: cell-based
Details: P2X7-HEK-293 cells; agonist Bz-ATP; fluorescence as total area over 90 seconds; read-out: P2X7 Ca Flux hu IC50
In short: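 HEK-293 cells stably expressing full-length P2X7 were loaded with Ca++-sensitive dye for 1 h, with compound added during loading. Cells were stimulated with Bz-ATP on FLIPR. Fluorescence was integrated as total area over 90 s, and IC50 was taken as 50% inhibition of the maximal Ca++ response.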

IC50 [nM] | Compound
26.9 | Cc1c(Cl)cccc1-n1ccn2c(S(=O)(=O)Cc3ccccc3C(C)(C)C)nnc2c1=O [Compound 136, 3-(2-tert-butylbenzylsulfonyl)-7-(3-chloro-2-methylphenyl)-[1,2,4]triazolo[4,3-a]pyrazin-8(7H)-one]
5670 | Cc1c(-n2ccn3c(SCc4nc5ccccc5n4C)nnc3c2=O)cccc1C(F)(F)F [Compound 3, 3-((1-methyl-1H-benzo[d]imidazol-2-yl)methylthio)-7-(2-methyl-3-(trifluoromethyl)phenyl)-[1,2,4]triazolo[4,3-a]pyrazin-8(7H)-one]
286 | Cc1c(Cl)cccc1-n1ccn2c(SCc3cccc(F)c3Cl)nnc2c1=O [Compound 16, 7-(3-chloro-2-methylphenyl)-3-(2-chloro-3-fluorobenzylthio)-[1,2,4]triazolo[4,3-a]pyrazin-8(7H)-one]
47 | COc1cccc(-c2ccccc2CS(=O)(=O)c2nnc3c(=O)n(-c4cccc(C(F)(F)F)c4C)ccn23)c1 [Compound 146, 3-((3′-methoxybiphenyl-2-yl)methylsulfonyl)-7-(2-methyl-3-(trifluoromethyl)phenyl)-[1,2,4]triazolo[4,3-a]pyrazin-8(7H)-one]
3500 | Cc1c(Cl)cccc1-n1ccn2c(SCc3cccc(-c4ccccc4)c3)nnc2c1=O [Compound 46, 3-(biphenyl-3-ylmethylthio)-7-(3-chloro-2-methylphenyl)-[1,2,4]triazolo[4,3-a]pyrazin-8(7H)-one]
42.6 | Cc1c(-n2ccn3c(SCc4ccccc4-c4ccc(F)cc4)nnc3c2=O)cccc1C(F)(F)F [Compound 10, 3-((4′-fluorobiphenyl-2-yl)rnethylthio)-7-(2-methyl-3-(trifluoromethyl)phenyl)-[1,2,4]triazolo[4,3-a]pyrazin-8(7H)-one]
335 | Cc1c(Cl)cccc1-n1ccn2c([S+]([O-])Cc3cc(Cl)cc(Cl)c3)nnc2c1=O (stereo not drawn) [Compound 162, 7-(3-chloro-2-methylphenyl)-3-(3,5-dichlorobenzylsulfinyl)-[1,2,4]triazolo[4,3-a]pyrazin-8(7H)-one]
76.5 | Cc1c(-n2ccn3c([S+]([O-])Cc4ccccc4)nnc3c2=O)cccc1C(F)(F)F (stereo not drawn) [Compound 117, 3-(benzylsulfinyl)-7-(2-methyl-3-(trifluoromethyl)phenyl)-[1,2,4]triazolo[4,3-a]pyrazin-8(7H)-one]
30.4 | Cc1cccc(-c2ccccc2CSc2nnc3c(=O)n(-c4cccc(C(F)(F)F)c4C)ccn23)c1 [Compound 5, 7-(2-methyl-3-(trifluorornethyl)phenyl)-3-((3'-methylbiphenyl-2-yl)methylthio)-[1,2,4]triazolo[4,3-a]pyrazin-8(7H)-one]
284 | Cc1onc(-c2ccccc2)c1CS(=O)(=O)c1nnc2c(=O)n(-c3cccc(C(F)(F)F)c3C)ccn12 [Compound 160, 7-(2-methyl-3-(trifluoromethyl)phenyl)-3-((5-methyl-3-phenylisoxazol-4-yl)methylsulfonyl)-[1,2,4]triazolo[4,3-a]pyrazin-8(7H)-one]
755 | Cc1c(Cl)cccc1-n1ccn2c(SCc3cc(Cl)ccc3F)nnc2c1=O [Compound 64, 3-(5-chloro-2-fluorobenzylthio)-7-(3-chloro-2-methylphenyl)-[1,2,4]triazolo[4,3-a]pyrazin-8(7H)-one]
48 | Cc1c(-n2ccn3c(S(=O)(=O)Cc4ccccc4-c4ccccc4)nnc3c2=O)cccc1C(F)(F)F [Compound 149]
2560 | Cc1nc(CSc2nnc3c(=O)n(-c4cccc(Cl)c4C)ccn23)cs1 [Compound 94, 7-(3-chloro-2-methylphenyl)-3((2-methylthiazol-4-yl)methylthio)-[1,2,4]triazolo[4,3-a]pyrazin-8(7H)-one]
136 | Cc1c(Cl)cccc1-n1ccn2c(S(=O)(=O)Cc3ccc(Cl)cc3)nnc2c1=O [Compound 157, 7-(3-chloro-2-methylphenyl)-3-(4-chlorobenzylsulfonyl)-[1,2,4]triazolo[4,3-a]pyrazin-8(7H)-one]
1590 | Cc1c(Cl)cccc1-n1ccn2c(N(C)Cc3ccccc3)nnc2c1=O [Compound 169, 3-(benzyl(methyl)amino)-7-(3-chloro-2-methylphenyl)-[1,2,4]triazolo[4,3-a]pyrazin-8(7H)-one]
102 | Cc1c(-n2ccn3c(SCc4ccccc4-c4ccc(Cl)cc4)nnc3c2=O)cccc1C(F)(F)F [Compound 9, 3-((4′-chlorobiphenyl-2-yl)nrethylthio)-7-(2-methyl-3-(trifluoromethyl)phenyl)-[1,2,4]triazolo[4,3-a]pyrazin-8(7H)-one]
107 | Cc1c(-n2ccn3c(SCc4ccccc4Br)nnc3c2=O)cccc1C(F)(F)F [Compound 12, 3-(2-bromobenzylthio)-7-(2-methyl-3-(trifluoromethyl)phenyl)-[1,2,4]triazolo[4,3-a]pyrazin-8(7H)-one]
280 | Cc1c(Cl)cccc1-n1ccn2c(SCc3c(Cl)cccc3Cl)nnc2c1=O [Compound 75, 7-(3-chloro-2-methylphenyl)-3-(2,6-dichlorobenzylthio)-[1,2,4]triazolo[4,3-a]pyrazin-8(7H)-one]
507 | COc1ccccc1C(=O)CSc1nnc2c(=O)n(-c3cccc(Cl)c3C)ccn12 [Compound 108, 7-(3-chloro-2-methylphenyl)-3-(2-(2-methoxyphenyl)-2-oxoethylthio)-[1,2,4]triazolo[4,3-a]pyrazin-8(7H)-one]
5680 | Cc1c(-n2ccn3c(S(C)(=O)=O)nnc3c2=O)cccc1C(F)(F)F [Compound 165, 7-(2-methyl-3-(trifluoromethyl)phenyl)-3-(methylsulfonyl)-[1,2,4]triazolo[4,3-a]pyrazin-8(7H)-one]
51.5 | Cc1c(-n2ccn3c(S(=O)(=O)Cc4ccccc4Oc4ccccc4)nnc3c2=O)cccc1C(F)(F)F [Compound 153, 7-(2-methyl-3-(trifluoromethyl)phenyl)-3-(2-phenoxybenzylsulfonyl)-[1,2,4]triazolo[4,3-a]pyrazin-8(7H)-one]
264 | Cc1c(Cl)cccc1-n1ccn2c(SCc3ccccc3I)nnc2c1=O [Compound 74, 7-(3-chloro-2-methylphenyl)-3-(2-iodobenzylthio)-[1,2,4]triazolo[4,3-a]pyrazin-8(7H)-one]
48.9 | Cc1ccc(-c2ccccc2CS(=O)(=O)c2nnc3c(=O)n(-c4cccc(C(F)(F)F)c4C)ccn23)s1 [Compound 150]
47.9 | O=c1c2nnc(S(=O)(=O)Cc3cccc4ccccc34)n2ccn1-c1cccc(C(F)(F)F)c1Cl [Compound 145, 7-(2-chloro-3-(trifluoromethyl)phenyl)-3-(naphthalen-1-ylmethylsulfonyl)-[1,2,4]triazolo[4,3-a]pyrazin-8(7H)-one]
